Measured values from patent publication US4001325A, “α-Chloroacetanilide selective herbicides” (Diamond Shamrock Corporation, priority 1973, dated 1977).

Tests used:
[1] = test system: Barnyardgrass; test: Example 17 selective herbicidal activity in corn crop, weed kill; type: in vivo, Echinochloa crusgalli; conditions: Echinochloa crus-galli, 3-4 weeks after planting
Description: (§1) This example illustrates the selective herbicidal activity of two of the presently preferred compounds of this invention against various weed species in a corn crop.
(§2) Plots of light sandy soil, cleared of all weeds, are uniformly treated with aqueous dispersions prepared from an emulsifiable concentrate containing 2- 4 pounds of active ingredient per gallon. Diluted aqueous dispersions are applied as surface treatments at 2.0, 1.0, 0.5, and 0.25 pound of active ingredient per acre (lb/A).
(§3) The treated test plots are sown to corn and with seeds of the following weed species:
(§4) Three to four weeks after planting, the degree of damage to both the corn stands and the weed plants is assessed from a rating of 0% (no injury) to 100% (complete destruction).

[2] = test system: Yellow Foxtail; test: as above; type: in vivo, Setaria lutescens; conditions: Setaria, 3-4 weeks after planting
Description: as §1, §2, §3, §4

[3] = test system: Johnsongrass; test: as above; type: in vivo; conditions: Sorghum halepense, 3-4 weeks after planting
Description: as §1, §2, §3, §4

[4] = test system: Velvetleaf; test: as above; type: in vivo; conditions: Abutilon theophrasti, 3-4 weeks after planting
Description: as §1, §2, §3, §4

[5] = test system: Fall Panicum; test: as above; type: in vivo; conditions: Panicum dichotomiflorum, 3-4 weeks after planting
Description: as §1, §2, §3, §4

[6] = test system: Soybeans; test: Example 18 phytotoxic effects on crop stands in different soils; type: in vivo, soybean
Method: (§5) To further illustrate the herbicidal activity of compounds of this invention in different types of soil as would be encountered in different crop growing localities, a preemergence herbicide test is conducted generally as outlined previously herein. Two light sandy soils are employed containing 0.7% and 1.8% organic matter (O.M.), respectively, along with two loam-type, heavier soils containing either 2.0% or 5-5.5% organic matter (O.M.).
(§6) The test plots are all sprayed uniformly with formulations of the test compounds providing 2.0, 1.0, 0.5, and 0.25 pound of active chemical per acre (lb/A).
(§7) Prior to treatment, the soil plots are sown to field corn, soybean, and grain sorghum crops and seeds of barnyard-grass and yellow foxtail.
Three weeks after planting, the percent control of plant growth is rated from 0% (no injury) to 100% (total destruction). The results obtained are as follows:
Phytotoxic effects on the crop stands are similarly rated with the following results: […]

[7] = test system: Giant Foxtail; test: Field preemergence test, weed control; type: in vivo; conditions: 3-4 weeks after planting
Description: (§8) Test plots of fertilized, light sandy soil containing 0.7% organic matter are sprayed uniformly with aqueous suspensions prepared from emulsifiable concentrates containing 12%, by weight, of the test chemicals diluted to provide dosage rates of the test compounds corresponding to 2.0, 1.0, 0.5, and 0.25 pound per acre (lb/A). The plots are then sown with seeds of the following crop plants: sweet corn, cotton (Coker 413) and soybeans, var. Davis. Seeds of the following weed plants are planted: redroot pigweed, prickly sida, common lambsquarter, goosegrass and giant foxtail.
(§9) Three to four weeks after planting, percent control (plant kill) of the test plants is estimated, from a rating of 0 which denotes no injury to the plant up to 100 which denotes complete destruction. The herbicidal action of the test compounds obtained on the weed species is as follows: […]

[8] = test system: Redroot Pigweed; test: Field preemergence test, weed control; type: in vivo; conditions: 3-4 weeks after planting
Description: as §8, §9

[9] = test system: Common Lambsquarter; test: Field preemergence test, weed control; type: in vivo; conditions: 3-4 weeks after planting
Description: as §8, §9

[10] = test system: Prickly Sida; test: Field preemergence test, weed control; type: in vivo; conditions: 3-4 weeks after planting
Description: as §8, §9

[11] = test system: Goosegrass; test: Field preemergence test, weed control; type: in vivo; conditions: 3-4 weeks after planting
Description: as §8, §9

[12] = test system: Yellow Foxtail; test: Example 18 preemergence herbicide test in different soils, % control; type: in vivo; conditions: three weeks
Method: as §5, §6, §7
Three weeks after planting, the percent control of plant growth is rated from 0% (no injury) to 100% (total destruction).

[13] = test system: Cotton; test: Field preemergence test, phytotoxic effects on crop; type: in vivo, cotton (Coker 413)
Description: as §8
(§10) Three to four weeks after planting, percent control (plant kill) of the test plants is estimated, from a rating of 0 which denotes no injury to the plant up to 100 which denotes complete destruction. The herbicidal action of the test compounds obtained on the weed species is as follows:
(§11) Phytotoxic effects observed on the crop species is estimated with results as follows: […]

[14] = test system: Corn; test: as above; type: in vivo, sweet corn
Description: as §8, §10, §11

[15] = test system: corn; test: Example 17 damage to corn crop; type: in vivo; conditions: 1 lb/A
Description: as §1, §2, §3, §4

[16] = 0.5 lb/A, Heavy Soil 5-5.5% O.M.
[17] = 0.5 lb/A, Medium Soil 2.0% O.M.
[18] = 1.0 lb/A, Heavy Soil 5-5.5% O.M.
[19] = 1.0 lb/A, Medium Soil 2.0% O.M.
[20] = 2.0 lb/A, Heavy Soil 5-5.5% O.M.
[21] = 2.0 lb/A, Medium Soil 2.0% O.M.

C#CCN(C(=O)CCl)c1c(C)cccc1CC [Example 15, 2-Chloro-2'-methyl-6'-ethyl-N-propargylacetanilide]
mortality at 280.212 g/ha ([1]; 0.25 lb/A): 88% | mortality at 560.425 g/ha ([1]; 0.5 lb/A): 100% | mortality at 1120.85 g/ha ([1]; 1.0 lb/A): 100% | mortality at 2241.7 g/ha ([1]; 2.0 lb/A): 100% | mortality at 280.212 g/ha ([2]; 0.25 lb/A): 82% | mortality at 560.425 g/ha ([2]; 0.5 lb/A): 97% | mortality at 1120.85 g/ha ([2]; 1.0 lb/A): 100% | mortality at 2241.7 g/ha ([2]; 2.0 lb/A): 100% | mortality at 280.212 g/ha ([3]; 0.25 lb/A): 0% | mortality at 560.425 g/ha ([3]; 0.5 lb/A): 73% | mortality at 1120.85 g/ha ([3]; 1.0 lb/A): 100% | mortality at 2241.7 g/ha ([3]; 2.0 lb/A): 100% | mortality at 280.212 g/ha ([4]; 0.25 lb/A): 0% | mortality at 560.425 g/ha ([4]; 0.5 lb/A): 27% | mortality at 1120.85 g/ha ([4]; 1.0 lb/A): 37% | mortality at 2241.7 g/ha ([4]; 2.0 lb/A): 80% | mortality at 280.212 g/ha ([5]; 0.25 lb/A): 78% | mortality at 560.425 g/ha ([5]; 0.5 lb/A): 96% | mortality at 1120.85 g/ha ([5]; 1.0 lb/A): 97% | mortality at 2241.7 g/ha ([5]; 2.0 lb/A): 100% | % Phytotoxicity, Soybeans [6, 16]: 0% | % Phytotoxicity, Soybeans [6, 17]: 0% | % Phytotoxicity, Soybeans ([6]; 0.5 lb/A, Sand 0.7% O.M.): 0% | % Phytotoxicity, Soybeans ([6]; 0.5 lb/A, Sand 1.8% O.M.): 0% | % Phytotoxicity, Soybeans [6, 18]: 0% | % Phytotoxicity, Soybeans [6, 19]: 0% | % Phytotoxicity, Soybeans ([6]; 1.0 lb/A, Sand 0.7% O.M.): 0% | % Phytotoxicity, Soybeans ([6]; 1.0 lb/A, Sand 1.8% O.M.): 0% | % Phytotoxicity, Soybeans [6, 20]: 0% | % Phytotoxicity, Soybeans [6, 21]: 0% | % Phytotoxicity, Soybeans ([6]; 2.0 lb/A, Sand 0.7% O.M.): 0% | % Phytotoxicity, Soybeans ([6]; 2.0 lb/A, Sand 1.8% O.M.): 0% | % Weed Control, Giant Foxtail ([7]; 0.25 lb/A): 47% | % Weed Control, Giant Foxtail ([7]; 0.5 lb/A): 78% | % Weed Control, Giant Foxtail ([7]; 1.0 lb/A): 97% | % Weed Control, Giant Foxtail ([7]; 2.0 lb/A): 100% | % Weed Control, Redroot Pigweed ([8]; 0.25 lb/A): 65% | % Weed Control, Redroot Pigweed ([8]; 0.5 lb/A): 89% | % Weed Control, Redroot Pigweed ([8]; 1.0 lb/A): 100% | % Weed Control, Redroot Pigweed ([8]; 2.0 lb/A): 100% | % Weed Control, Common Lambsquarter ([9]; 0.25 lb/A): 95% | % Weed Control, Common Lambsquarter ([9]; 0.5 lb/A): 98% | % Weed Control, Common Lambsquarter ([9]; 1.0 lb/A): 100% | % Weed Control, Common Lambsquarter ([9]; 2.0 lb/A): 100% | % Weed Control, Prickly Sida ([10]; 0.25 lb/A): 0% | % Weed Control, Prickly Sida ([10]; 0.5 lb/A): 55% | % Weed Control, Prickly Sida ([10]; 1.0 lb/A): 93% | % Weed Control, Prickly Sida ([10]; 2.0 lb/A): 97% | % Weed Control, Goosegrass ([11]; 0.25 lb/A): 87% | % Weed Control, Goosegrass ([11]; 0.5 lb/A): 97% | % Weed Control, Goosegrass ([11]; 1.0 lb/A): 100% | % Weed Control, Goosegrass ([11]; 2.0 lb/A): 100% | % Control, Yellow Foxtail [12, 16]: 98% | % Control, Yellow Foxtail [12, 17]: 100% | % Control, Yellow Foxtail ([12]; 0.5 lb/A, Sand 0.7% O.M.): 45% | % Control, Yellow Foxtail ([12]; 0.5 lb/A, Sand 1.8% O.M.): 30% | % Control, Yellow Foxtail [12, 18]: 100% | % Control, Yellow Foxtail [12, 19]: 100% | % Control, Yellow Foxtail ([12]; 1.0 lb/A, Sand 0.7% O.M.): 65% | % Control, Yellow Foxtail ([12]; 1.0 lb/A, Sand 1.8% O.M.): 65% | % Control, Yellow Foxtail [12, 20]: 100% | % Control, Yellow Foxtail [12, 21]: 100% | % Control, Yellow Foxtail ([12]; 2.0 lb/A, Sand 0.7% O.M.): 90% | % Control, Yellow Foxtail ([12]; 2.0 lb/A, Sand 1.8% O.M.): 85% | % Crop Kill, Cotton ([13]; 0.5 lb/A): 0% | % Crop Kill, Cotton ([13]; 1.0 lb/A): 6% | % Crop Kill, Cotton ([13]; 2.0 lb/A): 13% | % Crop Kill, Corn ([14]; 0.5 lb/A): 0% | % Crop Kill, Corn ([14]; 1.0 lb/A): 3% | % Crop Kill, Corn ([14]; 2.0 lb/A): 12% | injury to the corn [15]: no injury
